In the NIST ThermoML archive (doi:10.1021/je500380x):

Assay: mn = molality of the nth substance listed, in mol/kg
Conditions: 100 kPa, Liquid; for viscosity: Falling or rolling sphere viscometry; for mass density: Vibrating tube method; for electrical conductivity: Alternating current cell with electrodes

CCC(=O)OCCN1CCNCC1 [2-(piperazin-1-yl)ethyl propionate] + CCO
Conditions	electrical conductivity, 313.15 K [S/m]	electrical conductivity, 318.15 K [S/m]	mass density, 308.15 K [kg/m3]	mass density, 313.15 K [kg/m3]	viscosity, 308.15 K [mPa·s]	viscosity, 313.15 K [mPa·s]
m1 = 0.05	0.0197	0.0198	779.32	774.92	–	0.856
m1 = 0.1	0.0323	0.0328	782.05	777.65	–	0.893
m1 = 0.1985	0.0513	0.0525	787.4	783	–	0.939
m1 = 0.3005	0.0674	0.0694	793.06	788.67	–	1.003
m1 = 0.4001	0.0806	0.0833	798.51	794.13	–	1.066
m1 = 0.5007	0.0937	0.0972	804.18	799.81	–	1.145
m1 = 0.5998	0.1048	0.109	809.68	805.32	–	1.225
m1 = 0.7002	0.1144	0.119	815.4	811.06	–	1.317
m1 = 0.8	0.125	0.1309	821.15	816.82	–	1.435
m1 = 0.8957	0.1335	0.14	826.9	822.6	–	1.529
m1 = 1	0.1433	0.1514	832.84	828.55	1.841	1.655
m1 = 1.198	0.158	0.168	844.51	840.27	2.166	1.94
m1 = 1.401	0.1717	0.1837	857.11	852.89	2.605	2.319
m1 = 1.602	0.1817	0.195	869.1	864.93	3.182	2.817
m1 = 1.8	0.189	0.204	881.5	877.36	3.932	3.459
m1 = 2.001	0.1932	–	894.88	890.78	5.113	4.464
m1 = 2.198	0.1946	–	906.86	902.73	6.285	5.328
m1 = 2.397	0.193	–	920.09	916.08	7.874	6.774
m1 = 2.597	0.1842	–	933.36	929.4	11.18	9.473
m1 = 2.796	0.177	–	946.62	942.71	14.4	12.12
m1 = 3.006	0.166	–	960.85	956.85	20.29	16.88
